Test results published in patent US20110009379A1, “INDOLINONE COMPOUND” (ASTELLAS PHARMA INC., priority 2008, published 2011).

How the values were obtained:
[1] = system: delay of discharging time induced by loperamide in mice; assay: Loperamide induced constipation model (glass bead discharging time); assay type: in vivo; details: Mus musculus; mice (Slc:ddY, male), 0.3 mg/kg loperamide subcutaneously, compound orally; read-out: ED50 (amount which suppresses 50% of the delay of discharging time induced by loperamide)
Method: It has been known that loperamide as a μ opioid receptor agonist causes convulsive contraction in intestinal tracts. Thus, a delay in the intestinal transport ability due to loperamide is thought as a constipation IBS model.
Mice (Slc:ddY, five-week old, male) fasted from the previous evening of the experiment. On the day of the experiment, the mice were acclimatized to cages for measurement for 1 hour or more, and 0.3 mg/kg of loperamide was administered subcutaneously. After 30 minutes, a compound to be tested was administered orally, ether anesthesia was applied to the mice immediately thereafter, glass beads having diameter of 3 mm were inserted to 2 cm from anus. The mice were returned to the cages for measurement, and the time from waking to discharging of the glass beads was measured. Furthermore, the compound to be tested was dissolved into 10% DMSO, 10% cremophor, and 80% distillated water.
As a result, it has been recognized that there was a delay in the beads discharging time of the loperamide administration group (vehicle group) in comparison with the loperamide non-administration group (control group).
ED50 values (amount of the compound to be tested which suppresses 50% of the delay of discharging time induced by loperamide) of some of the compounds of the formula (I) are shown in Table 3. In this connection, comparative compound 1 is the same compound as comparative compound 1 in Test Example 4.

Cytochrome P450(2D6) = Cytochrome P450(2D6) (Homo sapiens, UniProt P10635); assay: Cytochrome P450(2D6) enzyme inhibition test; assay type: in vitro ADME; details: CYP2D6, fluorescent substrate 1.5 μmol/L, 37° C., 20 minutes
Sequence of Cytochrome P450(2D6) (P10635 whole entry): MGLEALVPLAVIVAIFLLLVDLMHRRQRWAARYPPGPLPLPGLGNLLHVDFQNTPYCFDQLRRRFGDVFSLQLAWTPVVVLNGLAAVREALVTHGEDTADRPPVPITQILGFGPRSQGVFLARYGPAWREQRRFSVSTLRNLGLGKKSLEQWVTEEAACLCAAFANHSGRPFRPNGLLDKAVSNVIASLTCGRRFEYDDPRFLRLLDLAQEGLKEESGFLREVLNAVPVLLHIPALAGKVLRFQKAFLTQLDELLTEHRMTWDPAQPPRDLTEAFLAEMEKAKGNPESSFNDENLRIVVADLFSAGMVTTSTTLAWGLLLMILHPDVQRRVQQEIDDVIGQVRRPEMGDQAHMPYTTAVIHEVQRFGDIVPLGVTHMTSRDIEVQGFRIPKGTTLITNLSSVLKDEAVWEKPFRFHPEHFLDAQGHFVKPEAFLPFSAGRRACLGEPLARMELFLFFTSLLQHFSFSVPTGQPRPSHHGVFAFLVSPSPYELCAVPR
Method: The experiment was performed in accordance with the method of Crespi et al. (Analytical Biochemistry, 248, 188-190, 1997).
As a substrate, 3-[2-(N,N-diethyl-N-methylamino)ethyl]-7-methoxy-4-methyl coumarine (1.5 μmol/L) a compound to be tested (3.1×10^−7 to 2×10^−5 M) and an enzyme (2.5×10^−8 M) were incubated at 37° C. for 20 minutes in total of […] of 100 mM phosphorous buffer (pH=7.4) including 8.2 mM NADP+, 0.41 mM glucose-6-phosphate, 0.41 mM MgCl2 and 0.4 Units/mL glucose-6-phosphate dehydrogenase, using 96 well plates. Then, 0.5 M aqueous 2-amino-2-hydroxymethyl-1,3-propandiol solution containing 80% acetonitrile was added to stop the reaction, fluorescence intensity (excitation wavelength; 390 nm, fluorescent wavelength; 460 nm) was measured with a fluorescent plate reader. An inhibition ratio was calculated with the following formula, and the test compound concentration when the inhibition ratio is 50% (IC50) was obtained.
C1: fluorescence intensity in the presence of the test compound and enzyme at know concentrations, and the substrate
C0: fluorescence intensity in the presence of the enzyme and substrate, without the test compound
B1: fluorescence intensity of blank well

human TRPA1 = biological target: T1, human TRPA1 (Homo sapiens, UniProt O75762, K186N/R3C/R58T); assay: Measurement of TRPA1 activation activity (intracellular calcium, FLIPR, HEK293 cells stably expressing human TRPA1); assay type: cell-based; details: change of intracellular calcium concentration
T1 construct: expressed in transfected cells; pcDNA3.1(+) vector)
T1 sequence (O75762 whole entry R3C/R58T/K186N): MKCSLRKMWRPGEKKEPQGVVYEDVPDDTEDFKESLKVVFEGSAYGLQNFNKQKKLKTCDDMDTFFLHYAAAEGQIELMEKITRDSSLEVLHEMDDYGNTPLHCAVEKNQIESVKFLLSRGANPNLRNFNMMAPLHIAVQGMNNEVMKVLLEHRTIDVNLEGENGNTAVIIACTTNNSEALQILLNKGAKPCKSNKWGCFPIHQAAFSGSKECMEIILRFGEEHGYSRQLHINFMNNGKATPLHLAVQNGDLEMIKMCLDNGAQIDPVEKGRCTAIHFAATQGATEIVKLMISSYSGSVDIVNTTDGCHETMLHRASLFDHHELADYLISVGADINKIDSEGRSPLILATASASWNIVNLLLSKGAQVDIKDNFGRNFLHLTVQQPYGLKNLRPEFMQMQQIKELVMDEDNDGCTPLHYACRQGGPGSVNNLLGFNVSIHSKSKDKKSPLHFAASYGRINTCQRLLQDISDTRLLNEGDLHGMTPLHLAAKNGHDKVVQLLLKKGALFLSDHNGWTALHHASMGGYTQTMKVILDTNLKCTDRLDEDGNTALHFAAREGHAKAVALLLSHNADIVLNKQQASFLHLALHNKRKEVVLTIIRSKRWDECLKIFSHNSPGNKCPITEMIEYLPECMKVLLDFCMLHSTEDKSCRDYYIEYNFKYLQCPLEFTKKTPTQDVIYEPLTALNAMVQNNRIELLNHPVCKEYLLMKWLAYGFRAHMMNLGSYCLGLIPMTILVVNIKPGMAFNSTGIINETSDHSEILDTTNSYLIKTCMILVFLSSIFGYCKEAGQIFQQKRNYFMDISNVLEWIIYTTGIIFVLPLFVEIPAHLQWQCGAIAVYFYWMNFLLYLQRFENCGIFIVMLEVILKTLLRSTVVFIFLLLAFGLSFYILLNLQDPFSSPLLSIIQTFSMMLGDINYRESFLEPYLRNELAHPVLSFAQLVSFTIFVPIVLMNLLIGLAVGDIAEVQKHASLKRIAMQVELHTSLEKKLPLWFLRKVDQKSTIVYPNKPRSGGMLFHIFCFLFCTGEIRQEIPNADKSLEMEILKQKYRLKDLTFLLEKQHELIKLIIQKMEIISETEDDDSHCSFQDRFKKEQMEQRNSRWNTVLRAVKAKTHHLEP
Method: 10 ng of Human brain mRNA (Clontech Co.) was treated with DNase, and then was reverse transcribed using kit for reverse transcription-polymerase chain reaction (RT-PCR) (SUPERSCRIPT First-Strand Synthesis System for RT-PCR; Invitrogen Co.) to synthesize the first strand cDNA. PCR using a hot start method was performed using the first strand cDNA as a template and Taq DNA polymerase (LA Taq DNA polymerase; TAKARA SHUZO). The PCR was performed using oligonucleotides consisting of the nucleotide sequences, represented by sequence number 2 as a sense primer and sequence number 3 as an antisense primer, in which firstly, heat denaturation was performed at 98° C. (1 minute), and then a cycle of 98° C. (15 seconds)/56° C. (30 seconds)/72° C. (5 minutes) was repeated 35 times. As a result, a DNA fragment of about 3.3 kbp was amplified.
The DNA fragment was cloned to pCR-TOPO vector using a cloning kit (TOPO XL PCR Cloning Kit; Invitrogen). The obtained plasmid DNA was digested with restriction enzymes KpnI and HindIII, and then was cloned using plasmid pcDNA 3.1(+)(Invitrogen). In this connection, the plasmid pcDNA 3.1(+) has a promoter sequence derived from cytemegalovirus, and can be used in order to express a protein in animal cells.
The nucleotide sequences of the obtained clones were analyzed using DNA sequencer (ABI3700 DNA Sequencer; Applied Biosystems) by dideoxyterminator method, and the nucleotide sequence represented by sequence number 1 was obtained. Furthermore, when these sequences were translated to amino acid sequences, the amino acid sequence represented by sequence number 1 was obtained.
After constructing the expression vector of the human TRPA1 gene, selection by G418 was performed from the HEK293 cells which temporarily expressed TRPA1 by transfection operation to obtain cells stably expressing TRPA1. The above operation was performed according to known methods (experimental medicine supplementary volume, “Cultivation Cell Experimental Methods for Molecular Biology Study” published by Toshio Kuroki, Namho Hue and Kazuhiro Chida, 1995, Yodosha).
In order to measure the change of the intracellular calcium concentration in the cells stably expressing the human TRPA1, the change of the intracellular calcium concentration when a compound to be tested was added was measured using FLIPR (Molecular Device).
In order to measure the change of the intracellular calcium concentration with FLIPR, the following pretreatment was performed. First of all, assay buffer was prepared which was for adding fluorescent pigment Fluo4-AM (DOJIN) to the cells or washing the cells just before performing FLIPR assay. To a solution (hereinafter, HBSS/HEPES solution) where 20 mL of 1M HEPES (pH 7.4; Invitrogen) was added to 1000 mL of a physiological saline buffer (Hank's Balanced Salt Solution; HBSS) (Invitrogen), was added 10 mL of a solution where 710 mg of probenecid (Sigma) was dissolved into 5 mL of 1M aqueous NaOH solution and 5 mL of HBSS/HEPES solution was further added and mixed, and the assay buffer was thus prepared. Then, 50 μg of Fluo4-AM was dissolved into 22 μL of DMSO (DOJIN), the same amount of 20% pluronic acid (Molecular Probes) was added thereto and mixed, and the mixture was added to the 10.6 mL of the assay buffer where 105 μL of fetal bovine serum was added, to prepare a fluorescent pigment solution. The medium of the cells stably expressing TRPA1 was removed, 100 μL per well of the fluorescent pigment solution was dispensed immediately, followed by cultivation in a CO2 cultivator for 1 hour, and the fluorescent pigment was soaked in the cells. The cells after cultivation were washed using the assay buffer, followed by being set in FLIPR. Furthermore, a test sample, which was added to the cells stably expressing TRPA1, was prepared by using the assay buffer, and at the same time, was set in FLIPR. […]

RIN14B cells = assay: Measurement of 5-HT secretion from RIN14B; assay type: cell-based; details: 20 minutes at 37° C., relative to 300 μM allyl isothiocyanate = 100%, HBSS only = 0%
Method: In order to investigate whether TRPA1 is related to 5-HT release, 5-HT secretion promotion from RIN14B by a compound to be tested was measured.
The RIN14B cells cultivated in a petri dish were scraped using Phosphate buffered saline (PBS) containing 1 mM EDTA, distributed into 24 well plates, and cultivated for 2 days. As a medium, a medium in which 10% fetal bovine serum (ICN), 100 U/mL penicillin, and 100 μg/mL streptomycin was added to RPMI1640 (Invitrogen), was used. The cells were washed once with HBSS (Invitrogen) and added with 0.1% BSA and 10 μM fluoxetine (TOCRIS Co.), followed by dilution with the above HBSS, the prepared compound to be tested was added to RIN14B cells, followed by cultivation at 37° C., under 5% CO2 condition for 20 minutes. After cultivation, supernatant of cells was recovered, followed by freeze preservation. The content of 5-HT in the supernatant was measured by a commercial serotonin immunoassay kit (Beckman). 5-HT release promotion activation value (%) was evaluated as a relative value when the 5-HT release promotion value by 300 μM of allyl isothiocyanate was defined as 100%, and the 5-HT release promotion value by HBSS for dilution only was defined as 0%.

melting point: 140 to 142 °C | IC50 (Cytochrome P450(2D6)): > 20 µM | EC50 (human TRPA1): 3 µM
SMILES: O=C(O)/C=C1/C(=O)N(CC2CCCC2)c2ccccc21 [Example 26, (2E)-[1-(cyclopentylmethyl)-2-oxo-1,2-dihydro-3H-indol-3-ylidene]acetic acid]
ED50 [1]: 0.51 mg/kg | 5-HT release promotion activation value (RIN14B cells): 102.5%
